Consider one molecule from article PMC3019604 (ACS medicinal chemistry letters, 2010).

In this data set the test system is BJ, HEK293, HEP G2, and Raji cell lines. In words: Cytotoxicity. It is filed as cell-based, human. The note with it: four mammalian cell lines (BJ, HEK293, HEP G2, Raji).

As for `Cc1cc(NC(=O)Nc2cccc(OC(F)(F)F)c2)c2ccccc2n1` [4{13, 34}], the “mammalian cytotoxicity (in words)” value is on record as “weak”.
